Reference: patent US20240300991A1, “NUCLEOSIDE DERIVATIVE HAVING MULTI-TARGET KINASE INHIBITORY ACTIVITY AND PHARMACEUTICAL COMPOSITION FOR PREVENTING AND TREATING CANCER COMPRISING SAME” (FUTURE MEDICINE CO., LTD., priority 2021, published 2024)

Tests used:
CSNK1D = target: T1, CSNK1D (Homo sapiens, UniProt P48730); assay: Kinase inhibition test (DNA-tagged kinase, affinity resin, qPCR readout); assay type: binding; design: key: (−) indicates no effect; (+) indicates weak inhibitory activity; (++) indicates a moderate level of inhibitory activity; (+++) indicates strong inhibitory activity; conditions: 1 μM of compound
T1 construct: made in house
Source text: (§1) In order to examine the inhibitory activity of the nucleoside derivatives of the present invention synthesized in the Preparation Examples against kinases, the nucleoside derivatives were confirmed to have inhibitory activity against neurotrophic tyrosine kinase receptor type 1 or tropomyosin receptor kinase A (NTRK1), casein kinase 1 isoform delta (CSNK1D), dual specificity tyrosine-phosphorylation-regulated kinase 1A (DYRK1A), dual specificity tyrosine-phosphorylation-regulated kinase 1B (DYRK1B) and receptor-type tyrosine-protein kinase or fms like tyrosine kinase 3 or cluster of differentiation antigen 135 (CD135) or fetal liver kinase-2 (Flk2) (FLT3).
(§2) The inhibition measurement method is as follows. Most of the kinases were produced by culturing a phage in which BL21 E. coli was tagged with a kinase at 32° C. until lysis, followed by centrifugation and filtration. Further, the kinases were produced using HEK-293 cells. Thereafter, the kinases were DNA tagged for qPCR. After an affinity resin was prepared by stirring a biotin-tagged substrate onto streptavidin-coated beads for 30 minutes, a non-specifically bound substrate was washed with a buffer (SeaBlock (Pierce), 1% BSA, 0.05% Tween 20, 1 mM DTT).
(§3) For a kinase test, the kinase, the substrate, the affinity resin, and a test material dissolved in dimethyl sulfoxide were stirred together in a buffer (20% SeaBlock, 0.17×PBS, 0.05% Tween20, and 6 mM DTT) at room temperature for 1 hour. Thereafter, an affinity substrate was washed with a buffer (1×PBS, 0.05% Tween20), and then suspended in an elution buffer (1×PBS, 0.05% Tween20, 0.5 μM non-biotinylated affinity ligand), and the resulting suspension was stirred. The concentration of the kinase was quantified by qPCR.

DYRK1A = target: T2, DYRK1A (Homo sapiens, UniProt Q13627); assay: as above; assay type: binding; design: key: (−) indicates no effect; (+) indicates weak inhibitory activity; (++) indicates a moderate level of inhibitory activity; (+++) indicates strong inhibitory activity; conditions: 1 μM of compound
T2 construct: made in house
Source text: as §1, §2, §3

DYRK1B = target: T3, DYRK1B (Homo sapiens, UniProt Q9Y463); assay: as above; assay type: binding; design: key: (−) indicates no effect; (+) indicates weak inhibitory activity; (++) indicates a moderate level of inhibitory activity; (+++) indicates strong inhibitory activity; conditions: 1 μM of compound
T3 construct: made in house
Source text: as §1, §2, §3

FLT3 = target: T4, FLT3 (Homo sapiens, UniProt P36888); assay: as above; assay type: binding; design: key: (−) indicates no effect; (+) indicates weak inhibitory activity; (++) indicates a moderate level of inhibitory activity; (+++) indicates strong inhibitory activity; conditions: 1 μM of compound
T4 construct: made in house
T4 sequence (P36888 27-993): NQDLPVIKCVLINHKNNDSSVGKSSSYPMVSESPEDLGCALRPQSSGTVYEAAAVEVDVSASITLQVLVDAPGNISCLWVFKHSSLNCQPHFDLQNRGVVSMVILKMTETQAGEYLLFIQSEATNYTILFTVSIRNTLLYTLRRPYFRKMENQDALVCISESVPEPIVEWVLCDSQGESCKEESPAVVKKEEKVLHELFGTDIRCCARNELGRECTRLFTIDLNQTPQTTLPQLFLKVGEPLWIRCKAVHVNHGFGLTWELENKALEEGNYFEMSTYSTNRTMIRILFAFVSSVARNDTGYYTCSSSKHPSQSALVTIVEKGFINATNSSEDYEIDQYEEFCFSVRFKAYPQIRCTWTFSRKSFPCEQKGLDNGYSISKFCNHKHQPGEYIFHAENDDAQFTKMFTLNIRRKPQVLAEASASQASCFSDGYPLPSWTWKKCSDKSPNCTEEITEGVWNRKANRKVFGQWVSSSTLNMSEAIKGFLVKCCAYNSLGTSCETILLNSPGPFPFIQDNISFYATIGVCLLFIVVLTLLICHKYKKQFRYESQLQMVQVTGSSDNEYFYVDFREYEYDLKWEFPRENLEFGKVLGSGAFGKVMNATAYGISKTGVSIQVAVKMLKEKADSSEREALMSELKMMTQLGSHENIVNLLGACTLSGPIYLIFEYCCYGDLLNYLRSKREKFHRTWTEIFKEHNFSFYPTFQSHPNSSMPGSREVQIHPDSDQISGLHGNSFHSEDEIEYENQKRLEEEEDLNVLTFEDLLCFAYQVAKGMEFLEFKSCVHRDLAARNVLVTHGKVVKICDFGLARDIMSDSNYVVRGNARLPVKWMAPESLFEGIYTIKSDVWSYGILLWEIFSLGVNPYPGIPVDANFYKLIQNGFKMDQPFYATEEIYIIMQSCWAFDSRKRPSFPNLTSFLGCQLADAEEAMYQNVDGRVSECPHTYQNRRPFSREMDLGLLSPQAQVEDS
Source text: as §1, §2, §3

NTRK1 = target: T5, NTRK1 (Homo sapiens, UniProt P04629); assay: as above; assay type: binding; design: key: (−) indicates no effect; (+) indicates weak inhibitory activity; (++) indicates a moderate level of inhibitory activity; (+++) indicates strong inhibitory activity; conditions: 1 μM of compound
T5 construct: made in house
Source text: as §1, §2, §3

A549 (lung cancer cells) = assay: Inhibitory activity against cancer cells (sulforhodamine B staining); assay type: cell-based; conditions: 3 days, SRB staining
Procedure: (§4) In order to examine the anticancer activity of the nucleoside derivatives of the present invention synthesized in the Preparation Examples, the ICso of each of A549 (lung cancer cells), HCT116 (colon cancer cells), MDA-MB-231 (breast cancer cells), SK-Hep-1 (liver cancer cells), SNU638 (stomach cancer cells) and PC-3 (prostate cancer cells) against cancer cells was measured.
(§5) The test method is as follows. Cells were allowed to stand for 1 day and set as a control on day 0. Further, after a test material was added to the cells, the cells were allowed to stand for 3 days. Thereafter, the cells were stained with 1% acetic acid and 0.4% sulforhodamine B. The stained cells were dried and dissolved in 10 mM Tris (pH 10.0). Absorbance was measured at 515 nm, and the degree of cell division was determined using the following equation. After calculation as Cell division (%)=(average absorbancetest material−average absorbanceday 0)/(average absorbance control-average absorbanceday 0)×100, the degree of cell division was calculated through a non-linear regression analysis using Table Curve 2D v5.01 (Systat Software Inc., San Jose, CA, USA).

[1] = test system: HCT116 (colon cancer cells); assay: as above; assay type: cell-based; conditions: 3 days, SRB staining
Procedure: as §4, §5

[2] = test system: MDA-MB-231 (breast cancer cells); assay: as above; assay type: cell-based; conditions: 3 days, SRB staining
Procedure: as §4, §5

[3] = test system: PC-3 (prostate cancer cells); assay: as above; assay type: cell-based; conditions: 3 days, SRB staining
Procedure: as §4, §5

[4] = test system: SK-Hep-1 (liver cancer cells); assay: as above; assay type: cell-based; conditions: 3 days, SRB staining
Procedure: as §4, §5

[5] = test system: SNU638 (stomach cancer cells); assay: as above; assay type: cell-based; conditions: 3 days, SRB staining
Procedure: as §4, §5

T5 sequence (P04629 33-796): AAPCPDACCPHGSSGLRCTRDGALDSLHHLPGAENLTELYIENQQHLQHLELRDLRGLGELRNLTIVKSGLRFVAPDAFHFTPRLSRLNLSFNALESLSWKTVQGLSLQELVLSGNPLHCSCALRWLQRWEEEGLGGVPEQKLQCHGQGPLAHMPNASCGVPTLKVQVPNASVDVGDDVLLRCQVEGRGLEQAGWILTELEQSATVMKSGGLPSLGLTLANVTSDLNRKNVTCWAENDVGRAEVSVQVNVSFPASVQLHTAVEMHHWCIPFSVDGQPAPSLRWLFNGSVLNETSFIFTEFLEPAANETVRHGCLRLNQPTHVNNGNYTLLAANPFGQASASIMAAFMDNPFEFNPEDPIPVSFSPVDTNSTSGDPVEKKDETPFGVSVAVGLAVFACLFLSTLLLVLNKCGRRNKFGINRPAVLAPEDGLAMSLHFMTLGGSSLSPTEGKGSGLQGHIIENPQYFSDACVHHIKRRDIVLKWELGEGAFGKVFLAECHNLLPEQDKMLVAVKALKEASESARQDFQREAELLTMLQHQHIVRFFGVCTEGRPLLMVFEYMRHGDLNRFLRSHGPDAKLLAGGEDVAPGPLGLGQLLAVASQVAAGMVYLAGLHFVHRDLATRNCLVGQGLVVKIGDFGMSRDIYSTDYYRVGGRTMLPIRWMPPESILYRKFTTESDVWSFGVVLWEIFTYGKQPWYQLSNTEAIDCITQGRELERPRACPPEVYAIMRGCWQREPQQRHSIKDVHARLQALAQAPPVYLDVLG
T3 sequence (Q9Y463 whole entry): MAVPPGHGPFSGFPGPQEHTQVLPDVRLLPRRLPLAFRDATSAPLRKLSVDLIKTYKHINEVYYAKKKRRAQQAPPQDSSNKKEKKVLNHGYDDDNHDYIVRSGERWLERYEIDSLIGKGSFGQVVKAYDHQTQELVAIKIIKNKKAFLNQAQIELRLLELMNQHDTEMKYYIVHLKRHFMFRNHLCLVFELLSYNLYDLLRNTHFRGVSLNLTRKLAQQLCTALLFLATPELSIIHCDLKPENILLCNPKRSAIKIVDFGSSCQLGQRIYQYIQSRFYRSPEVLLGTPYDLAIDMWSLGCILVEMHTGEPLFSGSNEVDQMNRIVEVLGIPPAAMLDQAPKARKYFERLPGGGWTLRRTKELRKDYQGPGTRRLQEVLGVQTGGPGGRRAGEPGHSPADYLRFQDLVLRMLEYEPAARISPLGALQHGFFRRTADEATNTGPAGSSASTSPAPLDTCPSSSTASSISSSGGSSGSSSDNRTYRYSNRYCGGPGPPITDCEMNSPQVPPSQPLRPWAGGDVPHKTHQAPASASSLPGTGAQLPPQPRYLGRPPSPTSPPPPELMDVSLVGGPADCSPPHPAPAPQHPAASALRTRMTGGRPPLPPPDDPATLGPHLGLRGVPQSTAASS
T1 sequence (P48730 whole entry): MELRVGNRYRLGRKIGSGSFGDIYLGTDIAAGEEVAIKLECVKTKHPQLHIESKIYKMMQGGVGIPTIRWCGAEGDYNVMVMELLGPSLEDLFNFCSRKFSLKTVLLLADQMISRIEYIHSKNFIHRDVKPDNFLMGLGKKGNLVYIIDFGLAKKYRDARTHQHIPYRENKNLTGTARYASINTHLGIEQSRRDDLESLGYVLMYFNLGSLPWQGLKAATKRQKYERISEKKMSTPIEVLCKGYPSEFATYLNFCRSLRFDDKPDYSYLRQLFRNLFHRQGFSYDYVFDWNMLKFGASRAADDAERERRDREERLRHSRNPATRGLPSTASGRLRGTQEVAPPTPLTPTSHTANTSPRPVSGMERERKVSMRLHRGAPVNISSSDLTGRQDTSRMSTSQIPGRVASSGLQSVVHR

CSNK1D inhibitory activity (CSNK1D)	DYRK1A inhibitory activity (DYRK1A)	DYRK1B inhibitory activity (DYRK1B)	FLT3 inhibitory activity (FLT3)	NTRK1 inhibitory activity (NTRK1)	IC50 (A549 (lung cancer cells))	IC50 [1]	IC50 [2]	IC50 [3]	IC50 [4]	IC50 [5]	Compound
+++	+++	++	+++	+++	1.58 µM	1.35 µM	1.87 µM	1.98 µM	1.4 µM	1.33 µM	C#Cc1cn([C@@H]2S[C@H](CN)[C@@H](O)[C@H]2O)c2ncnc(N)c12 [Compound 10a]
++	+++	+++	++	+++	28.6 µM	26.3 µM	32.4 µM	29.1 µM	21.2 µM	23.3 µM	C#Cc1cn([C@@H]2S[C@H](CNC(=O)c3ccccc3)[C@@H](O)[C@H]2O)c2ncnc(N)c12 [Compound 8b]
++	++	++		+++	3.19 µM	2.86 µM	2.13 µM	2.05 µM	0.57 µM	1.31 µM	C#Cc1cn([C@@H]2S[C@H](COC(=O)c3ccccc3)[C@@H](O)[C@H]2O)c2ncnc(N)c12 [Compound 7b]
++	+++	++		+++	10.1 µM	13.7 µM	10.4 µM	14.8 µM	12.2 µM	12.2 µM	C#Cc1cn([C@@H]2S[C@H](CNC(=O)c3ccc(OC)cc3)[C@@H](O)[C@H]2O)c2ncnc(N)c12 [Compound 8c]
+++	++	++		++	7.57 µM	6.35 µM	8.83 µM	9.21 µM	7.81 µM	6.32 µM	Nc1ncnc2c1c(-c1ccccc1)cn2[C@@H]1S[C@H](CO)[C@@H](O)[C@H]1O [Compound 2b]
+	−	−		++	> 50 µM	> 50 µM	30.6 µM	> 50 µM	8.31 µM	> 50 µM	Nc1ncnc2c1c(C#CC1CC1)cn2[C@@H]1S[C@H](CO)[C@@H](O)[C@H]1O [Compound 4d]
++	++	+++		+++	11.2 µM	8.9 µM	9.34 µM	6.67 µM	13.8 µM	23.7 µM	N#Cc1cn([C@@H]2S[C@H](CNC(=O)c3ccccc3)[C@@H](O)[C@H]2O)c2ncnc(N)c12 [Compound 8d]
++	++	++		++	4.53 µM	1.36 µM	2.46 µM	2.81 µM	7.34 µM	5.57 µM	NC(=O)NC[C@H]1S[C@@H](n2cc(C(N)=O)c3c(N)ncnc32)[C@H](O)[C@@H]1O [Compound 11aiii]
